Test results from ChEMBL document CHEMBL3102742, “Corallorazines from the myxobacterium Corallococcus coralloides” (J Nat Prod, 2014).
The source made the active and inactive calls. The calls are words filed in the database; no cut-off is given here.

How the values were obtained:
[1] = target: Cathepsin B (Homo sapiens) (UniProt P07858); assay: Inhibition of cathepsin B (unknown origin) up to 10 ug/ml
[2] = target: Procathepsin L (Homo sapiens) (UniProt P07711); assay: Inhibition of cathepsin L (unknown origin) up to 10 ug/ml
[3] = target: Cathepsin S (Homo sapiens) (UniProt P25774); assay: Inhibition of cathepsin S (unknown origin) up to 10 ug/ml
[4] = target: Prothrombin (Homo sapiens) (UniProt P00734); assay: Inhibition of human thrombin up to 10 ug/ml
Trypsin (Homo sapiens) = Trypsin (Homo sapiens) (UniProt P07477+P07478+P35030); assay: Inhibition of trypsin (unknown origin) up to 10 ug/ml; assay type: protein assay
Homo sapiens = species: Homo sapiens; assay: Inhibition of chymotrypsin (unknown origin) up to 10 ug/ml
[5] = target: T1, Neutrophil elastase (Homo sapiens) (UniProt P08246); assay: Inhibition of human leucocyte elastase up to 10 ug/ml
T1 sequence (whole entry): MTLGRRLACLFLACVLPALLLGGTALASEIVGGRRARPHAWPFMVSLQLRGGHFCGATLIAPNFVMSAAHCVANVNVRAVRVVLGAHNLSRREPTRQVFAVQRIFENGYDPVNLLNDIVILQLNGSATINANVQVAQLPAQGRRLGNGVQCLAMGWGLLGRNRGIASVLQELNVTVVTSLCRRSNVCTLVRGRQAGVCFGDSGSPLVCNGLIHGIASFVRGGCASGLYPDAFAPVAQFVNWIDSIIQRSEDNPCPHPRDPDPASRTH

[6] = target: Cannabinoid receptor 2 (Homo sapiens) (UniProt P34972); assay: Binding affinity to CB2 receptor (unknown origin) up to 10 ug/ml
[7] = target: Cannabinoid receptor 1 (Homo sapiens) (UniProt P21554); assay: Binding affinity to CB1 receptor (unknown origin) up to 10 ug/ml
Microbotryum violaceum = assay: Antifungal activity against Microbotryum violaceum up to 1 mg/ml by agar diffusion method; assay type: functional, organism-based
Aspergillus ruber = assay: Antifungal activity against Eurotium rubrum DSM 62631 up to 1 mg/ml by agar diffusion method; assay type: functional
Mycotypha microspora = assay: Antifungal activity against Mycotypha microspora up to 1 mg/ml by agar diffusion method; assay type: functional, organism-based
Priestia megaterium = assay: Antibacterial activity against Bacillus megaterium DSM 32 up to 1 mg/ml by agar diffusion method; assay type: functional, organism-based
Escherichia coli = assay: Antibacterial activity against Escherichia coli DSM 498 up to 1 mg/ml by agar diffusion method; assay type: functional, organism-based

Chain of Cannabinoid receptor 2 (Homo sapiens) (P34972 whole entry): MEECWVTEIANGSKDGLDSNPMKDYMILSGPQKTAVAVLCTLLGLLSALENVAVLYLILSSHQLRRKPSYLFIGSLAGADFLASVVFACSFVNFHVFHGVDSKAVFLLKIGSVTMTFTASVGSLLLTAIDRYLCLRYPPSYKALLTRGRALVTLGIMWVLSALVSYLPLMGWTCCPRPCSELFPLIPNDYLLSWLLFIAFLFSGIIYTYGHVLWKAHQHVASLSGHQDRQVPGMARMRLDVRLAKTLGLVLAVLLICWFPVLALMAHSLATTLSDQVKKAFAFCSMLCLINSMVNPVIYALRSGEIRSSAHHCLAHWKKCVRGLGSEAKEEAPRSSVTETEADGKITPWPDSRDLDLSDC
Chain of Procathepsin L (Homo sapiens) (P07711 114-333 limits assumed): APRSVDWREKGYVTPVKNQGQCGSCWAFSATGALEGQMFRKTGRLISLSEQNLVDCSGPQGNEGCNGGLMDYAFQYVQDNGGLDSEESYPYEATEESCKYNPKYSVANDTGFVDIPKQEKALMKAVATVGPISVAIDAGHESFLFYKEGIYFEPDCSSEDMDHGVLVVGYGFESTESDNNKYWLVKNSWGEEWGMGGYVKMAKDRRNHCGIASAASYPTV
Chain of Cannabinoid receptor 1 (Homo sapiens) (P21554 whole entry, the tested form may be a part): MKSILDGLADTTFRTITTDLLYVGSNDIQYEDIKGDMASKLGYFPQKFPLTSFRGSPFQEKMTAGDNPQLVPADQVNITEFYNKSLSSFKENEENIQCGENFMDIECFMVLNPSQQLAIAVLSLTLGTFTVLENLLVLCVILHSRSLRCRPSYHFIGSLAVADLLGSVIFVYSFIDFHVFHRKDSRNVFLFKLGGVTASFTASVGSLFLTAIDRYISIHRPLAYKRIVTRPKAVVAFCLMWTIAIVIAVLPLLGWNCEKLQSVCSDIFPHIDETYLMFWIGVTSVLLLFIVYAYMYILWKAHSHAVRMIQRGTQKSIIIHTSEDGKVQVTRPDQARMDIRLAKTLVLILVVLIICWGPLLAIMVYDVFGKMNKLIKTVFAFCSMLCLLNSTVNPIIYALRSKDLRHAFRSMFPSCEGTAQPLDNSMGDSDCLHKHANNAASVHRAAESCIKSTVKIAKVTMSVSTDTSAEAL
Chain of Cathepsin S (Homo sapiens) (P25774 115-331 limits assumed): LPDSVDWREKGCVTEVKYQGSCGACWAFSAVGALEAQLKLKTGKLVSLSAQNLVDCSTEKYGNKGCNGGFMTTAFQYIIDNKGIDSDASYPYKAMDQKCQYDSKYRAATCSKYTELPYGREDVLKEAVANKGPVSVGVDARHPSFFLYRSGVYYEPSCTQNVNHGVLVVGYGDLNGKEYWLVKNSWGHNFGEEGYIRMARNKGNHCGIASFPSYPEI

inhibition [1]: inactive
inhibition [2]: inactive
inhibition [3]: inactive
inhibition [4]: inactive
inhibition (Trypsin (Homo sapiens)): inactive
inhibition (Homo sapiens): inactive
inhibition [5]: inactive
Activity [6]: inactive
Activity [7]: inactive
Structure (SMILES): C=C1C(=O)N(C)CC(O)N1C(=O)/C=C/C=C\CC(C)C (centres undefined)
Activity (Microbotryum violaceum): inactive
Activity (Aspergillus ruber): inactive
Activity (Mycotypha microspora): inactive
Activity (Priestia megaterium): inactive
Activity (Escherichia coli): inactive
